Data set [1] has as its target T1, sEH (Homo sapiens, UniProt P34913).
T1 sequence (P34913 1-555): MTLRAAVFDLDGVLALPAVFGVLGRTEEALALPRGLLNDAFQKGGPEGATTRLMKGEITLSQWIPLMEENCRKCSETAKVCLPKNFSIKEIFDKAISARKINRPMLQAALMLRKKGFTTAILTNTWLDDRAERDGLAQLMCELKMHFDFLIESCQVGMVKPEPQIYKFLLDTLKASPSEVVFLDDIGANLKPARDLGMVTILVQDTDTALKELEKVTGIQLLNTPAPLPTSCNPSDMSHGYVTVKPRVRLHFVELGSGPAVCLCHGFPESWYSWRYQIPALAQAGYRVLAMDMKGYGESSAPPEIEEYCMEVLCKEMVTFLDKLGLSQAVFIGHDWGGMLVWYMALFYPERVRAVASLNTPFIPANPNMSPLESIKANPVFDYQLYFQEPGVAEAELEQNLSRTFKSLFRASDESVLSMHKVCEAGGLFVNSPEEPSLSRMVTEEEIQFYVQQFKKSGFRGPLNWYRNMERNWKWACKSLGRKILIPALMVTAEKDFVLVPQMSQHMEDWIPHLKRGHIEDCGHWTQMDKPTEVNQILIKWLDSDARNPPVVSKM
As to the kind of experiment: Inhibition of sEH, assay not specified. In kind it is biochemical. The text has this:
“Soluble epoxide hydrolase” (“sEH”) is an epoxide hydrolase which in endothelial and smooth muscle cells converts EETs to dihydroxy derivatives called dihydroxyeicosatrienoic acids (“DHETs”). The cloning and sequence of the murine sEH is set forth in Grant et al., J. Biol. Chem. 268(23):17628-17633 (1993). The cloning, sequence, and accession numbers of the human sEH sequence are set forth in Beetham et al., Arch. Biochem. Biophys. […] The amino acid sequence of human sEH is SEQ ID NO.:1, while the nucleic acid sequence encoding the human sEH is SEQ ID NO.:2. […] Unless otherwise specified, as used herein, the terms “soluble epoxide hydrolase” and “sEH” refer to human sEH.
Derivatives of urea are transition state mimetics that form a preferred group of sEH inhibitors. […] Any particular urea derivative or other compound can be easily tested for its ability to inhibit sEH by standard assays, such as those discussed herein. The production and testing of urea and carbamate derivatives as sEH inhibitors is set forth in detail in, for example, Morisseau et al., Proc Natl Acad Sci (USA) 96:8849-8854 (1999).
Any of a number of standard assays for determining epoxide hydrolase activity can be used to determine inhibition of sEH. […] Suitable in vitro assays are described in Zeldin et al., J Biol. Chem. 268:6402-6407 (1993). […]

Data set [2] has as its system healthy rats. As to the kind of experiment: von Frey mechanical withdrawal threshold in healthy rats. As to conditions: 4-PBA 40 mg/kg.
Experimental: Standard nociceptive measurements were performed in all experiments. For the von Frey test an electronic rigid tip instrument was used (IITC, Woodland Hills Calif.). For the thermal nociceptive thresholds the modified Hargreaves' method was used. The baseline withdrawal thresholds before STZ administration were taken as 100% response and all mean nociceptive thresholds were converted to percentage values. Inhibitors were administered by intraperitoneal route after completely dissolving in vehicle PEG400 (1 mL/kg).
Data set [3] concerns healthy rats. The data set is described as follows: Intraplantar tunicamycin (Tm) induced pain model, mechanical withdrawal. In kind it is in vivo, rat. On the procedure:
(§1) FIGS. 7A-F illustrate that ER stress inducer tunicamycin (Tm) is rapid, intense and selective in generating pain behavior. (A) Tm is administered into the midsection of one hind paw in a volume of 10 μL (20 μg). Mechanical withdrawal of ipsi- and contralateral paws are then monitored over a period of 6 h until the ipsilateral paw measurements returned to baseline values. The withdrawal data are presented as gram force required for inducing a withdrawal reflex response. (B) Decreasing doses of Tm generated less intense allodynia which subsided faster than the highest dose. […] (D) Intraplantar Tm induced pain is reversible with sEH inhibitor (lh prior to Tm, i.p. administration) in a dose dependent manner. (E) Expectedly this pain is reversible with chemical chaperone 4-PBA. The basis for the increase above the baseline threshold in this group is not investigated.

Data set [4] deals with type I diabetic rats. As to the kind of experiment: STZ induced type I diabetic rat neuropathic pain model, electronic von Frey test. The settings on record: for Drug reduction index: combination of 4-PBA and TPPU, CompuSyn.
Experimental: Data are presented as mean±SEM in all subsequent figures throughout the text.
(B) The CompuSyn software was used to construct an isobologram of the interaction. ED50 values calculated for each drug are plotted on x and y-axis respectively. […] (C) Combination index (CI) is reported as the key parameter of the synergistic interaction.
Standard nociceptive measurements were performed in all experiments. For the von Frey test an electronic rigid tip instrument was used (IITC, Woodland Hills Calif.). […] The baseline withdrawal thresholds before STZ administration were taken as 100% response and all mean nociceptive thresholds were converted to percentage values. Inhibitors were administered by intraperitoneal route after completely dissolving in vehicle PEG400 (1 mL/kg).
Results are depicted as mean±SEM. CompuSyn software package was used to quantify the synergy between drugs.
Data set [5] deals with healthy rats. As to the kind of experiment: Intraplantar dimethylcelecoxib (DMCx) induced pain model. In kind it is in vivo, rat. On the procedure: FIGS. 9A-C illustrate that mechanistically different ER stress inducer dimethylcelecoxib (DMCx) generates a rapid and intense but sEHI and cox-2 inhibitor reversible pain phenotype. (A) DMCx is administered into the midsection of one hind paw in a volume of 10 μL (20 μg). Mechanical withdrawal of ipsi- and contralateral paws are then monitored over a period of 4 h. The withdrawal data are presented as gram force required for inducing a withdrawal reflex response. (B) Intraplantar DMCx induced pain is reversible with sEH inhibitor (1 h prior to Tm, i.p. administration) in a dose dependent manner.

For data set [6], the system named is healthy rats. As to the kind of experiment: Intraplantar Tm, thermal withdrawal threshold (modified Hargreaves' test). Type of data set: in vivo, rat. On the procedure:
as §1

“Also recorded” adds a separate entry of the source.

As for `CCCCCCCCCCCCNC(=O)NC12CC3CC(CC(C3)C1)C2` [ADU, N-Adamantyl-N′-dodecyl urea], in data set [1], the “Activity on sEH” value is “particularly high activity”.
With `O=C(O)CCCc1ccccc1` [Compound 4-PBA, 4-phenyl butyric acid], the “Acute mechanical withdrawal threshold in healthy rats” value in data set [2] is given as “not antinociceptive; also recorded: does not result in change of acute mechanical withdrawal threshold”. Moreover, the “Reversal of Tm induced sensitivity to mechanical stimuli” value in data set [3] (pre-administration i.p. 1 h prior to Tm, celecoxib 30 mg/kg) is reported as “reversed; also recorded: reversible”. The figures for the Drug reduction index in data set [4] (at ED50) and in data set [4] (at ED97) were 2.2 fold and 3.9 fold, respectively. Besides, the “Allodynia / antinociception (von Frey withdrawal threshold)” value in data set [4] (diabetic rats, i.p., 4-PBA 10-100 mg/kg, TPPU 0.01-1 mg/kg) was “dose and time dependent antinociception occurs within minutes; also recorded: reduce allodynia in a dose and time dependent manner”. Also, in data set [4] (diabetic rats, systemic delivery, highest dose), the “Antinociceptive efficacy at the highest dose” value is “full efficacy and rapid onset”. Further, in data set [4] (type I diabetic rats, 10 mg/kg, 6 h time period), the “Effect on pain-related behavior at 10 mg/kg” value is on record as “ineffective”.
For `Cc1ccc(C)c(-c2cc(C(F)(F)F)nn2-c2ccc(S(N)(=O)=O)cc2)c1` [DMCx, dimethyl-celecoxib], the “Swelling after intraplantar administration” value in data set [5] was “Swelling of the ipsilateral paw”.
With tunicamycin [Tm], in data set [6], the “Heat responses / thermal withdrawal threshold of the ipsilateral paw” value is “rapid and sustained loss of heat responses; also recorded: notable increase in thermal withdrawal threshold”. Besides, in data set [3] (hind paw of healthy rats), the “Induction of pain by intraplantar administration” value is given as “induce a significant degree of pain”. In addition, the “Swelling after intraplantar administration” value in data set [3] (intraplantar Tm) is “Minimal amount of swelling”. Besides, the “Mechanical withdrawal threshold after Tm” value in data set [3] (intraplantar, 20 μg, ipsilateral paw) is reported as 25 % of the baseline levels.

Source of the values: patent publication US10813894B2, “Methods of inhibiting pain” (The Regents of the University of California, priority 2015, dated 2020).
